Where no end group is shown, it is not given here.
Key:
Tumor cells HEp2 = test: Imaging of tumor in HEp2 tumor-bearing nude mouse (gamma camera, organ radioactivity); format: in vivo, BALB/C nude mouse; details: twenty minutes after injection
Protocol: Tumor cells HEp2 (5×10^6 cells, Human Epidermoid Carcinoma; ATCC No. CCL 23) were suspended in 1.0 ml of medium (Minimum essential medium (Eagle's) with Earle's BSS, 90% fetal bovine serum, 10%), and 100 μl of the suspension was subcutaneously injected to BALB/C nude mouse (6 weeks age) at the body side. […] Five and 20 minutes after the injection, the animal was imaged with a gamma camera.
Immediately after the imaging, the animal was sacrificed and examined for the distribution of the radioactivity in each organ using NaI single channel analyzer to determine a ratio of the radioactivity in tumor site to the radioactivity in muscle site (T/B ratio).

inflammation site = details: S. aureus inflammation rat
Protocol: Staphylococcus aureus 10^8 cells were suspended in 1 ml of physiological saline, and 100 μl of the suspension was intramuscularly administered to SD rats weighing about 220 g at the right calf. […] Thirty and 120 minutes after the peptide was injected, the animal was imaged with a gamma camera. Regions of interest were selected from the obtained image to determine a ratio T/B of the radioactivity in inflammation site (T) to the radioactivity in normal site (B).

Tc-99m-KYCAREPPTRTNAYWGQG (also: Tc-99m label) [Tc-99m-labeled peptide containing KYC at the N-terminus, for tumor imaging]
T/B ratio (radioactivity in tumor site to radioactivity in muscle site) (Tumor cells HEp2; i.v. tail vein, n=3): 4.50±0.71
Imaging of tumor site (gamma camera) (Tumor cells HEp2): clearly imaged

Tc-99m-KYCGGKTKPREQQYNSTYRVV-NH2
T/B ratio (radioactivity in inflammation site to radioactivity in normal site) (inflammation site; i.v. tail vein, regions of interest of image, n=6): 3.26±0.18
Imaging of inflammation site (gamma camera) (inflammation site; imaged 30 and 120 minutes after injection): clearly imaged

— patent publication US5785948A, “Metal chelate forming peptides and use thereof represented by three amino acid sequences” (Nihon Medi-Physics Co., Ltd., priority 1994, dated 1998)
